Results taken from ChEMBL document CHEMBL3351876 (Eur J Med Chem, 2014).

What was measured:
Plasmodium falciparum = test: Antimalarial activity against chloroquine-resistant ring stage Plasmodium falciparum W2 assessed as parasitemia after 48 hrs by flow cytometry; assay type: functional, organism-based; details: W2, 48 h
Heme = test: Binding affinity to heme assessed as inhibition of beta-haemozoin formation by UV-vis spectra analysis
[1] = Selectivity index, ratio of CC50 for human HeLa cells to IC50 for chloroquine-resistant ring stage Plasmodium falciparum W2; assay type: functional
HeLa = test: Cytotoxicity against human HeLa cells after 24 hrs by trypan blue exclusion assay; assay type: cell-based

Q: Which IC50 (Plasmodium falciparum) does the source give for O=C1[C@H](NC(=S)Nc2ccnc3cc(Cl)ccc23)[C@H](/C=C/c2ccccc2)N1c1ccc(Cl)cc1 here?
A: 8.75 µM

Q: Which IC50 (Plasmodium falciparum) does the source give for CCCCN1C(=O)/C(=C/C=C/c2ccccc2)NC1=S here?
A: > 10 µM

Q: With O=C1[C@H](NC(=S)Nc2ccnc3cc(Cl)ccc23)[C@H](/C=C/c2ccccc2)N1C1CCCCC1 as the compound, how does the IC50 (Plasmodium falciparum) read?
A: 6.13 µM

Q: With Cc1ccc(N2C(=O)[C@@H](NC(=S)Nc3ccc(F)cc3)[C@H]2/C=C/c2ccccc2)cc1 as the compound, how does the IC50 (Plasmodium falciparum) read?
A: > 10 µM

Q: For Cc1ccc(NC(=S)N[C@@H]2C(=O)N(c3ccc(C)cc3)[C@@H]2/C=C/c2ccccc2)cc1, which IC50 (Plasmodium falciparum) is on record?
A: > 10 µM

Q: Which IC50 (Plasmodium falciparum) does the source give for Cc1ccc(N2C(=O)[C@@H](NC(=S)NC3CCCCC3)[C@H]2/C=C/c2ccccc2)cc1 here?
A: > 10 µM

Q: With Cc1ccc(N2C(=O)[C@@H](NC(=S)NCC(C)C)[C@H]2/C=C/c2ccccc2)cc1 as the compound, how does the IC50 (Plasmodium falciparum) read?
A: > 10 µM

Q: With O=C1/C(=C/C=C/c2ccccc2)NC(=S)N1CCCCCCNc1ccnc2cc(Cl)ccc12 as the compound, how does the IC50 (Plasmodium falciparum) read?
A: 0.387 µM

Q: Which IC50 (Plasmodium falciparum) does the source give for Cc1ccc(N2C(=O)[C@H](NC(=S)Nc3ccnc4cc(Cl)ccc34)[C@@H]2/C=C/c2ccccc2)cc1 here?
A: > 10 µM

Q: Which IC50 (Plasmodium falciparum) does the source give for Cc1ccc(N2C(=O)/C(=C/C=C/c3ccccc3)NC2=S)cc1 here?
A: > 10 µM

Q: For O=C1/C(=C/C=C/c2ccccc2)NC(=S)N1C1CCCCC1, which IC50 (Plasmodium falciparum) is on record?
A: > 10 µM

Q: With O=C1[C@H](NC(=S)Nc2ccnc3cc(Cl)ccc23)[C@H](/C=C/c2ccccc2)N1c1ccc(F)cc1 as the compound, how does the IC50 (Plasmodium falciparum) read?
A: > 10 µM

Q: With NCCN1C(=O)/C(=C/C=C/c2ccccc2)NC1=S as the compound, how does the IC50 (Plasmodium falciparum) read?
A: > 10 µM

Q: Which IC50 (Plasmodium falciparum) does the source give for O=C1/C(=C/C=C/c2ccccc2)NC(=S)N1c1ccc(F)cc1 here?
A: > 10 µM

Q: With CCCCNC(=S)N[C@@H]1C(=O)N(c2ccc(C)cc2)[C@@H]1/C=C/c1ccccc1 as the compound, how does the IC50 (Plasmodium falciparum) read?
A: > 10 µM

Q: For O=C1[C@H](NC(=S)Nc2ccnc3cc(Cl)ccc23)[C@H](/C=C/c2ccccc2)N1c1ccccc1, which IC50 (Plasmodium falciparum) is on record?
A: > 10 µM

Q: Which results are given for O=C1/C(=C/C=C/c2ccccc2)NC(=S)N1CCCNc1ccnc2cc(Cl)ccc12?
A: IC50 (Plasmodium falciparum): 0.0425 µM; IC50 (Heme): 19.9 µM; Ratio IC50 [1]: 2139; IC50 (HeLa): 91 µM

Q: With O=C1/C(=C/C=C/c2ccccc2)NC(=S)N1CCNc1ccnc2cc(Cl)ccc12 as the compound, how does the IC50 (Plasmodium falciparum) read?
A: 0.0398 µM

Q: What about the IC50 (Heme) of the same compound?
A: 13.9 µM

Q: And the “Ratio IC50” value [1]?
A: 1807

Q: And the IC50 (HeLa)?
A: 72 µM

Q: For O=C1[C@H](NC(=S)Nc2ccnc3cc(Cl)ccc23)[C@H](/C=C/c2ccccc2)N1c1ccc(Br)cc1, which IC50 (Plasmodium falciparum) is on record?
A: 5.72 µM

Q: With CC(C)CN1C(=O)/C(=C/C=C/c2ccccc2)NC1=S as the compound, how does the IC50 (Plasmodium falciparum) read?
A: > 10 µM

Q: Which results are given for O=C1/C(=C/C=C/c2ccccc2)NC(=S)N1CCCCNc1ccnc2cc(Cl)ccc12?
A: IC50 (Plasmodium falciparum): 0.0572 µM; IC50 (Heme): 28.4 µM; Ratio IC50 [1]: >1747; IC50 (HeLa): > 100 µM
